The values that follow come from patent publication USRE38009E1, “Zeaxanthin formulations for human ingestion” (Zeavision LLC, priority 1995, dated 2003).

A short description of the data set: Storage of purified zeaxanthin powder for roughly six months unprotected, chiral column chromatography analysis. The format is physicochemical. The note with it: relatively unprotected, normal refrigeration, no anti-oxidants, no protection from atmospheric oxygen, fresh preparation at least 98% pure.

Description: After roughly six months of storage in a relatively unprotected state (usually under normal refrigeration with moderately frequent removal; without containing any anti-oxidants, and without taking any precautions to prevent contact by atmospheric oxygen), a sample of the zeaxanthin preparation was sent for stereoisomeric analysis to Prof.

Regarding `CC1=C(/C=C/C(C)=C/C=C/C(C)=C/C=C/C=C(C)/C=C/C=C(C)/C=C/C2=C(C)C[C@@H](O)CC2(C)C)C(C)(C)C[C@H](O)C1` [Zeaxanthin, zeaxanthin], the “Zeaxanthin content of preparation after storage” value came to 92%.
